Reference: patent US8921372B2, “Inhibitors of hepatitis C virus” (Theravance Biopharma R&D IP, LLC, priority 2010, dated 2014)

Tests used:
[1] = system: HCV genotype 1a replicon cell line (APC89; Huh7.5 cell background); test: HCV Genotype 1a Replicon Assay (NS3-specific protease activity readout); type: cell-based; details: Hepatitis C virus, 72 hour incubation, read-out: Genotype 1a (pEC50 class, HCV genotype 1a replicon assay) (converted)
Procedure: Assay 2: HCV Genotype 1a Replicon Assay
The HCV genotype 1a replicon cell line was obtained from Apath LLC (APC89; Huh7.5 cell background). This subgenomic replicon contains the N-terminus of the HCV core protein fused to the neomycin-resistance selectable marker. The EMCV IRES lies downstream and drives expression of the non-structural proteins NS3-NS5B. Compound potencies were determined using the NS3-specific protease activity in lysates as a measurement of compound inhibition of replicon levels.
(§1) Cells were grown at 37° C. in a 5% CO2 humidified incubator in DMEM (Invitrogen) with 10% FBS (HyClone), 1×NEAA (Invitrogen), 1× Pen-Strep (Invitrogen), and 850 μg/mL G418 (Invitrogen). On day 1 of the assay, cells were plated at 15,000 cells/well in black 96-well tissue culture plates (Costar) in 200 μL media lacking G418. Four hours later, once the cells had adhered, the media was removed and replaced with media (no G418) containing dose-responses of test compounds. Compounds were initially diluted in DMSO and then diluted another 200× in media to bring the final DMSO concentration down to 0.5%. The cells were incubated with test compounds for 48 or 72 hours. At the end of the incubation period, media and compound were removed from the plates.
To determine the NS3-specific protease activity in lysates, the cells were lysed at room temperature in 50 μL/well of 50 mM Hepes pH 7.5, 150 mM NaCl, 15% Glycerol, 0.15% Triton X-100, 10 mM DTT for 20 minutes with shaking. 50 μL of an NS3/4a protease-specific FRET substrate (Anaspec RET S1 Cat#22991) was then added to the wells at a final concentration of 15 μM. The plates were incubated at 37° C. for 20 minutes, which corresponds to a timepoint at which the protease activity is still in the linear phase. Protease activity was determined by measuring fluorescence (Excitation: 340 nm; Emission: 509 nm).
To analyze the data, the fluorescence was plotted vs. the compound concentration, and EC50 values were determined from a 4-parameter robust fit model using GraphPad Prism software.

[2] = system: HCV genotype 1b replicon cell line (APC144; Huh7 cell background); test: HCV Genotype 1b Replicon Assay (Renilla luciferase readout); type: cell-based; details: Hepatitis C virus, Huh-7; read-out: Genotype 1b (pEC50 class, HCV genotype 1b replicon assay) (converted)
From the text: Assay 1: HCV Genotype 1b Replicon Assay
The HCV genotype 1b replicon cell line was obtained from Apath LLC (Brooklyn, N.Y.) (APC144; Huh7 cell background). This subgenomic replicon contains the N-terminus of the HCV core protein fused to the neomycin-resistance selectable marker. The EMCV IRES lies downstream and drives expression of humanized Renilla luciferase fused to the non-structural proteins NS3-NS5B. This cell line was used to determine compound potency using the luciferase activity readout as a measurement of compound inhibition of replicon levels.
as §1, with “500” for “850”, “10,000” for “15,000”, “white” for “black”, “have” for “had”, “48” for “48 or 72”, “plates and the luciferase activity was determined using Promega Renilla-Glo reagents.” for “plates.”
To analyze the data, the luciferase activity was plotted vs. the compound concentration, and EC50 values were determined from a 4-parameter robust fit model with the GraphPad Prism software package (GraphPad Software, Inc., San Diego, Calif.). Results are expressed as the negative decadic logarithm of the EC50 value, pEC50.
Test compounds having a higher pEC50 value in this assay show greater inhibition of HCV genotype 1b replication.

| SMILES | EC50 [1] [nM] | EC50 [2] [nM] |
| --- | --- | --- |
| COC(=O)N[C@H](C(=O)N1CCC[C@H]1c1nc(-c2ccc(-c3ccc(NC(=O)c4ccc(N5CCN(C(=O)C6CC6)C[C@H]5C)nc4)cc3C)cc2)c[nH]1)C(C)C [Example 17] | 0.1 to 1 | < 0.1 |
| CNC(=O)N1CCN(c2ccc(C(=O)Nc3ccc(-c4ccc(-c5c[nH]c([C@@H]6CCCN6C(=O)[C@@H](NC(=O)OC)C(C)C)n5)cc4)c(C)c3)cn2)[C@H](C)C1 [Example 18] | 0.1 to 1 | < 0.1 |
| COC(=O)N[C@H](C(=O)N1CCC[C@H]1c1nc(-c2ccc(-c3ccc(NC(=O)c4ccc(N5CCN(C(=O)c6c[nH]cn6)C[C@H]5C)nc4)cc3C)cc2)c[nH]1)C(C)C [Example 19] | 0.1 to 1 | < 0.1 |
| CCOc1cc(NC(=O)c2ccc(N3CCN(C(=O)[C@]4(C)CCCN4C(=O)[C@@H](NC(=O)OC)C(C)C)C[C@H]3C)nc2)ccc1-c1ccc(-c2c[nH]c([C@@H]3CCCN3C(=O)[C@@H](NC(=O)OC)C(C)C)n2)cc1 [Example 21, [(S)-1-((S)-2-{4-[2′-Ethoxy-4′-({6-[(R)-4-((S)-1-{(S)-2-methoxycarbonylamino-3-methyl-butyryl}-2-methyl-pyrrolidine-2-carbonyl)-2-methyl-piperazin-1-yl]-pyridine-3-carbonyl}-amino)-biphenyl-4-yl]-1H-imidazol-2-yl}-pyrrolidine-1-carbonyl)-2-methyl-propyl]-carbamic acid methyl ester] | < 0.1 | < 0.1 |
| COC(=O)N[C@H](C(=O)N1CCC[C@H]1c1nc(-c2ccc(-c3ccc(NC(=O)c4ccc(N5CCN(C(=O)[C@H]6CC6(C)C)C[C@H]5C)nc4)cc3OC(F)(F)F)cc2)c[nH]1)C(C)C [Example 25, [(S)-1-((S)-2-{5-[4′-({6-[(R)-4-((S)-2,2-Dimethyl-cyclopropanecarbonyl)-2-methyl-piperazin-1-yl]-pyridine-3-carbonyl}-amino)-2′-trifluoromethoxy-biphenyl-4-yl]-1H-imidazol-2-yl}-pyrrolidine-1-carbonyl)-2-methyl-propyl]-carbamic acid methyl ester] | < 0.1 | < 0.1 |
| CNC(=O)N1CCN(c2ccc(C(=O)Nc3ccc(-c4ccc(-c5c[nH]c([C@@H]6CCCN6C(=O)[C@@H](NC(=O)OC)C(C)C)n5)cc4)c(OC(F)(F)F)c3)cn2)[C@H](C)C1 [Example 26] | < 0.1 | < 0.1 |
| COCC(=O)N1CCC[C@@]1(C)C(=O)N1CCN(c2ccc(C(=O)Nc3cc(OC(F)(F)F)c(-c4ccc(-c5c[nH]c([C@@H]6CCCN6C(=O)[C@@H](NC(=O)OC)C(C)C)n5)cc4)cc3OC)cn2)[C@H](C)C1 [Example 27-31] | < 0.1 | < 0.1 |
| COC(=O)N[C@H](C(=O)N1CCC[C@H]1c1nc(-c2ccc(-c3cc(F)c(NC(=O)c4ccc(N5CCN(C(=O)c6c[nH]cn6)C[C@H]5C)nc4)cc3OC(F)(F)F)cc2)c[nH]1)C(C)C [Example 27-33] | < 0.1 | < 0.1 |
| COC(=O)N[C@H](C(=O)N1CCC[C@H]1c1nc(-c2ccc(-c3cc(F)c(NC(=O)c4ccc(N5CCN(C(=O)c6cc[nH]n6)C[C@H]5C)nc4)cc3OC(F)(F)F)cc2)c[nH]1)C(C)C [Example 27-34] | < 0.1 | < 0.1 |
| COC(=O)N[C@H](C(=O)N1CCC[C@H]1c1nc(-c2ccc(-c3cc(F)c(NC(=O)c4ccc(N5CCN(C(=O)Cn6cccn6)C[C@H]5C)nc4)cc3OC(F)(F)F)cc2)c[nH]1)C(C)C [Example 27-36] | < 0.1 | < 0.1 |
| COC(=O)N[C@H](C(=O)N1CCC[C@H]1c1nc(-c2ccc(-c3cc(F)c(NC(=O)c4ccc(N5CCN(C(=O)CNC(C)=O)C[C@H]5C)nc4)cc3OC(F)(F)F)cc2)c[nH]1)C(C)C [Example 27-37] | < 0.1 | < 0.1 |
| COCCNC(=O)N1CCN(c2ccc(C(=O)Nc3cc(OC(F)(F)F)c(-c4ccc(-c5c[nH]c([C@@H]6CCCN6C(=O)[C@@H](NC(=O)OC)C(C)C)n5)cc4)cc3F)cn2)[C@H](C)C1 [Example 27-38] | < 0.1 | < 0.1 |
| COC(=O)N[C@H](C(=O)N1CCC[C@H]1c1nc(-c2ccc(-c3cc(F)c(NC(=O)c4ccc(N5CCN(C(=O)[C@]6(C)CCCN6C(=O)OC)C[C@H]5C)nc4)cc3OC(F)(F)F)cc2)c[nH]1)C(C)C [Example 27-42] | < 0.1 | < 0.1 |
| COC(=O)N[C@H](C(=O)N1CCC[C@H]1c1nc(-c2ccc(-c3cc(F)c(NC(=O)c4ccc(N5CCN(C(=O)[C@]6(C)CCCN6C(=O)NC(C)C)C[C@H]5C)nc4)cc3OC(F)(F)F)cc2)c[nH]1)C(C)C [Example 27-43] | < 0.1 | < 0.1 |
| COC(=O)N[C@H](C(=O)N1CCC[C@H]1c1nc(-c2ccc(-c3cc(F)c(NC(=O)c4ccc(N5CCN(C(=O)[C@]6(C)CCCN6C(=O)[C@@H](N)C(C)C)C[C@H]5C)nc4)cc3OC(F)(F)F)cc2)c[nH]1)C(C)C [Example 27-44] | < 0.1 | < 0.1 |
| COCCNC(=O)N1CCC[C@@]1(C)C(=O)N1CCN(c2ccc(C(=O)Nc3cc(OC(F)(F)F)c(-c4ccc(-c5c[nH]c([C@@H]6CCCN6C(=O)[C@@H](NC(=O)OC)C(C)C)n5)cc4)cc3F)cn2)[C@H](C)C1 [Example 27-45] | < 0.1 | < 0.1 |
| COCC(=O)N1CCC[C@@]1(C)C(=O)N1CCN(c2ccc(C(=O)Nc3cc(OC(F)(F)F)c(-c4ccc(-c5c[nH]c([C@@H]6CCCN6C(=O)[C@@H](NC(=O)OC)C(C)C)n5)cc4)cc3F)cn2)[C@H](C)C1 [Example 27-46] | < 0.1 | < 0.1 |
| CNC(=O)N1CCC[C@@]1(C)C(=O)N1CCN(c2ccc(C(=O)Nc3cc(OC(F)(F)F)c(-c4ccc(-c5c[nH]c([C@@H]6CCCN6C(=O)[C@@H](NC(=O)OC)C(C)C)n5)cc4)cc3F)cn2)[C@H](C)C1 [Example 27-47] | < 0.1 | < 0.1 |
| COC(=O)N[C@H](C(=O)N1CCC[C@H]1c1nc(-c2ccc(-c3cc(F)c(NC(=O)c4ccc(N5CCN(C(=O)[C@]6(C)CCCN6C(=O)CO)C[C@H]5C)nc4)cc3OC(F)(F)F)cc2)c[nH]1)C(C)C [Example 27-48] | < 0.1 | < 0.1 |
| COC(=O)N[C@H](C(=O)N1CCC[C@H]1c1nc(-c2ccc(-c3cc(F)c(NC(=O)c4ccc(N5CCN(C(=O)[C@]6(C)CCCN6C(=O)CN(C)C)C[C@H]5C)nc4)cc3OC(F)(F)F)cc2)c[nH]1)C(C)C [Example 27-50] | < 0.1 | < 0.1 |
| CNC(=O)N1CCN(c2ccc(C(=O)Nc3cc(OC(F)(F)F)c(-c4ccc(-c5c[nH]c([C@@H]6CCCN6C(=O)[C@@H](NC(=O)OC)C(C)C)n5)cc4)cc3Cl)cn2)[C@H](C)C1 [Example 27-68] | < 0.1 | < 0.1 |
| COC(=O)N[C@H](C(=O)N1CCC[C@H]1c1nc(-c2ccc(-c3cc(Cl)c(NC(=O)c4ccc(N5CCN(C(=O)[C@]6(C)CCCN6C(=O)CN(C)C)C[C@H]5C)nc4)cc3OC(F)(F)F)cc2)c[nH]1)C(C)C [Example 27-72] | < 0.1 | < 0.1 |
| CNC(=O)N1CCC[C@@]1(C)C(=O)N1CCN(c2ccc(C(=O)Nc3cc(OC(F)(F)F)c(-c4ccc(-c5c[nH]c([C@@H]6CCCN6C(=O)[C@@H](NC(=O)OC)C(C)C)n5)cc4)cc3Cl)cn2)[C@H](C)C1 [Example 27-73] | < 0.1 | < 0.1 |
| COC(=O)N[C@H](C(=O)N1CCC[C@H]1c1nc(-c2ccc(-c3ccc(NC(=O)c4ccc(N5CCN(C(=O)c6c[nH]cn6)C[C@H]5C)nc4)cc3OC(F)(F)F)cc2)c[nH]1)C(C)C [Example 27] | < 0.1 | < 0.1 |
